Key:
IDH1(R132H) = IDH1(R132H) (Homo sapiens, UniProt O75874, R132H); conditions: for fold less active than compound 2 against IDH1(R132H): relative to compound 2
BXD-4687 = assay type: cell-based, human
BXD-3752 = assay type: cell-based, human
WI-38 fibroblast cells = experiment: Cytotoxicity assay; assay type: cell-based
WT IDH1 [1] = molecular target: T1, WT IDH1 (Homo sapiens, UniProt O75874)
WT IDH1 [2] = molecular target: T1, WT IDH1; experiment: biochemical
HT1080 cells = experiment: D2HG production inhibition in HT1080 cells; conditions: Homo sapiens, HT-1080, 48 h, read-out: IC50 for inhibition of D2HG
[3] = tested on: breast cancer and leukemia cells; conditions: cited from earlier work

T1 sequence (O75874 whole entry): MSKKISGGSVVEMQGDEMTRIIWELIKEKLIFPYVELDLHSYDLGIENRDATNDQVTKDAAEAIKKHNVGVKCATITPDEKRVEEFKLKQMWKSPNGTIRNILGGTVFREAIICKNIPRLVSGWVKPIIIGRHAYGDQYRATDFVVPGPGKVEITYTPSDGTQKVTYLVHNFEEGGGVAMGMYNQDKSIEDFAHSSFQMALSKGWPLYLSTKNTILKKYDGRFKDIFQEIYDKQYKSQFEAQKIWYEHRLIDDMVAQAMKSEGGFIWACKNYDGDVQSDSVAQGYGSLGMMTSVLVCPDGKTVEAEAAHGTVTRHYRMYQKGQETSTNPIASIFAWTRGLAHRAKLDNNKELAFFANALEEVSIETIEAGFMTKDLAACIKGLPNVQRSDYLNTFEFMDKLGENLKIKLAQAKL
IDH1(R132H), sequence (O75874 whole entry R132H): as the sequence (O75874 whole entry) above, with R132H counted along it

Cc1cc(Cc2ccccc2)oc(=S)c1 [Compound 29]
inhibitory activity against IDH1(R132H), in words (IDH1(R132H)): inactive

Cc1ccccc1C(C(=O)NC1CCCCC1)N(C(=O)Cn1ccnc1C)c1cccc(F)c1 (stereo not drawn) [Compound 1]
activity against BXD-4687, in words (BXD-4687): no activity | activity against BXD-3752, in words (BXD-3752): no activity | activity against WI-38, in words (WI-38 fibroblast cells): no activity

O=c1ccc(CCCc2ccccc2)cn1O [Compound 11]
inhibitory activity against IDH1(R132H), in words (IDH1(R132H)): lose the inhibitory activity

O=c1ccc(CCc2ccccc2)cn1O [Compound 10]
inhibitory activity against IDH1(R132H), in words (IDH1(R132H)): lose the inhibitory activity

O=c1n(O)ccn1Cc1ccccc1 [Compound 26]
inhibitory activity against IDH1(R132H), in words (IDH1(R132H)): lack of activity

O=c1ccc(Cc2ccccc2)c[nH]1 [Compound 21]
inhibitory activity against IDH1(R132H), in words (IDH1(R132H)): lack of activity

COc1cccc(Cc2cc(C)cc(=O)n2O)c1 [Compound 39]
inhibitory activity against WT IDH1, in words (WT IDH1 [1]): do not inhibit the enzyme

Cc1cc(Cc2ccccc2)oc(=O)c1 [Compound 28]
inhibitory activity against IDH1(R132H), in words (IDH1(R132H)): inactive

Cc1cc(Cc2cccc(F)c2)n(O)c(=O)c1 [Compound 43]
fold less active than compound 2 against IDH1(R132H) (IDH1(R132H)): ~10 fold

O=c1cc(O)cc(Cc2ccccc2)n1O [Compound 34]
inhibitory activity against WT IDH1, in words (WT IDH1 [1]): do not inhibit the enzyme | Ki (WT IDH1 [2]): > 30 µM | IC50 (HT1080 cells): 9.7 ± 1.8 µM

Cc1cc(C2CCCCC2)n(O)c(=O)c1 [Compound 9, Ciclopirox, reference compound]
inhibitory activity against IDH1(R132H), in words (IDH1(R132H)): inactive | antiproliferative activity [3]: low micromolar

CC(C)c1cc(Cc2ccccc2)n(O)c(=O)c1 [Compound 33]
inhibitory activity against WT IDH1, in words (WT IDH1 [1]): do not inhibit the enzyme | IC50 (HT1080 cells): > 30 µM

Cc1cc(Cc2ccccc2O)n(O)c(=O)c1 [Compound 42]
fold less active than compound 2 against IDH1(R132H) (IDH1(R132H)): ~2 fold

Cc1cc(Cc2ccccc2)n(O)c(=O)c1 [Compound 2]
EC50 (WI-38 fibroblast cells; Homo sapiens, WI-38, 48 h, read-out: EC50 against WI-38): > 50 µM

O=c1ccc(-c2ccccc2)cn1O [Compound 5]
inhibitory activity against IDH1(R132H), in words (IDH1(R132H)): very weak activity

Cc1cc(C)n(O)c(=O)c1 [Compound 20]
inhibitory activity against IDH1(R132H), in words (IDH1(R132H)): inactive

Cc1cc(Cc2ccccc2)n(N)c(=O)c1 [Compound 27]
fold less active than compound 2 against IDH1(R132H) (IDH1(R132H)): 20 fold

Cc1cc(COc2ccccc2)n(O)c(=O)c1 [Compound 19]
fold less active than compound 2 against IDH1(R132H) (IDH1(R132H)): ~4 fold

Cc1cc(Cc2cccc(O)c2)n(O)c(=O)c1 [Compound 40]
inhibitory activity against WT IDH1, in words (WT IDH1 [1]): do not inhibit the enzyme

COc1ccccc1Cc1cc(C)cc(=O)n1O [Compound 41]
fold less active than compound 2 against IDH1(R132H) (IDH1(R132H)): ~2 fold

O=c1cccc(-c2ccccc2)n1O [Compound 15]
inhibitory activity against IDH1(R132H), in words (IDH1(R132H)): inactive

Cc1cc(Cc2c(F)c(F)c(F)c(F)c2F)n(O)c(=O)c1 [Compound 44]
fold less active than compound 2 against IDH1(R132H) (IDH1(R132H)): ~10 fold

Cc1ccn(O)c(=O)c1Cc1ccccc1 [Compound 30]
fold less active than compound 2 against IDH1(R132H) (IDH1(R132H)): 50 fold

O=c1cccc(Cc2ccccc2)n1O [Compound 7]
inhibitory activity against WT IDH1, in words (WT IDH1 [1]): do not inhibit the enzyme

O=c1ccn(O)c(=O)n1Cc1ccccc1 [Compound 25]
inhibitory activity against IDH1(R132H), in words (IDH1(R132H)): lack of activity

CC(c1ccccc1)c1cccc(=O)n1O (stereo not drawn) [Compound 16]
inhibitory activity against IDH1(R132H), in words (IDH1(R132H)): inactive

COc1ccc(-c2ccc(Cc3cc(C)cc(=O)n3O)cc2)cc1 [Compound 58]
selectivity for BT-142 over glioma cells without IDH1 mutation (BXD-4687, -3752) (BT-142 glioma cells): > 10 fold
